Experimental data from US20230201341A1, “TLR3 AND TLR9 AGONISTS AS VACCINE ADJUVANTS FOR ANTI-CANCER DNA VACCINES” (WISCONSIN ALUMNI RESEARCH FOUNDATION, priority 2021, published 2023).

Test system: TRAMP-C1 tumor cells
Assay: Tumor study with TRAMP-C1 tumors: DNA vaccine pTVG-AR co-delivered with TLR agonists
Assay type: in vivo, C57BL/6 mice
Details: administered with a DNA cancer vaccine in mice; compared with vaccine alone
Description: FIG. 6. Combinations of TLR agonists improve the anti-tumor efficacy of a DNA vaccine in a prostate cancer tumor model. C57BL/6 mice were implanted subcutaneously with TRAMP-C1 tumor cells. Mice were immunized intradermally weekly with control vector (pTVG4) or DNA encoding AR ligand-binding domain (pTVG-AR) and delivered alone or co-delivered with TLR1/2, TLR3 and/or TLR9 agonists. (A) shown are the growth curves for each group (n=6 animals per group). (B) Survival plots using the time to death or when tumors reached 2 cm3 in size, whichever occurred first. (C) Tumors obtained at necropsy were evaluated for the percentage of infiltrating CD45^+ cells, CD8^+ T cells among CD45^+ cells, and Treg cells (CD25^+Foxp3^+) among CD4^+CD45^+ cells. (D) Tumor-infiltrating CD8+ T cells were evaluated for 4-1BB and PD-1 expression by flow cytometry.
FIG. 11. Combinations of TLR agonists improve the anti-tumor efficacy of a DNA vaccine in a prostate cancer tumor model. […]
Six- to ten-week-old male C57BL/6 mice were inoculated with 1×10^6 TRAMP-C1 cells, administered subcutaneously with matrigel. […] TLR agonist(s) were co-administered with the vaccine intradermally, and tumor volumes were measured as described above. Obtained tumors were digested in collagenase and DNAse I for 1 hour at 37° C., passed through a […] screen, and analyzed by flow cytometry.

For ODN 1826, the tumor growth suppression was “improved the tumor growth suppression”.
